Measurements as given in paper PMC6332320, “Factors Influencing Oral Bioavailability of Thai Mango Seed Kernel Extract and Its Key Phenolic Principles” (Molecules, 2015).
Like-named read-outs stand apart in the source and are kept apart here. Marks after values point to notes of the source that are not given here.

Columns and labels:
[1] = Excretion in urine and feces after oral administration in rats; type: in vivo, Sprague-Dawley rats; settings: for Total Mass in Feces (0−24 h) / Total Mass in Urine (0−24 h): p.o.; for dose excreted: Sprague-Dawley, rat, blood, urine and feces, oral, 0-24 h, read-out: % recovery (total mass recovery: blood + urine + feces / initial mass)
Method: SD rats (five rats/group) were individually housed in stainless-steel metabolic cages, which allowed for the separation and collection of urine and feces. The rats were fasted overnight with ad libitum access to water prior to the day of the experiment. After a rat was anesthetized with isoflurane gas, the prepared suspension of test compound in an oral suspension vehicle was administered to the animals via oral gavage at a dose of 20 mg/kg for each compound in the mixture of MG and PGG or at 143 mg/kg MSKE, which is equivalent to approximate doses of 20 mg/kg PGG and 0.13 mg/kg MG. Subsequently, the rats’ tails were snipped near the tip to collect blood samples (approximately 50 µL), which were collected in heparinized tubes at 0, 0.50, 1, 2, 4, 6, 8 and 24 h. To investigate the excretion of phenolic compounds, urine and feces were collected between 0–24 h post-administration into tubes containing penicillin G (200 mg) and dry tubes, respectively, which were pre-weighted before use. After completing the pharmacokinetic study, the urine volume and dry feces weights were recorded, and all samples were stored at −80 °C until analysis.
The blood and urine samples were prepared according to our previously reported methods. The fecal samples were prepared by adding 30 mL methanol to the sample, and the mixture was then vortexed and sonicated for 30 min to obtain the fecal lysates, which were extracted via the same method.
The pharmacokinetic parameters of MG and PGG were calculated based on the non-compartmental method using WinNonlin 3.3 (Pharsight Corporation, Mountain View, CA, USA). The total mass of analytes was calculated according to the following equations (Equations (3)–(6)): The mass recovery (%) = (total mass in blood + total mass in urine + total mass in feces)/initial mass of analyte (3) Total mass in blood = C24h in blood × rat blood volume (70 mL/kg of body weight) (4) Total mass in urine = C0–24h in urine × volume of urine (0–24 h) (5) Total mass in feces = C0–24h in fecal lysate × volume of fecal lysate (30 mL) (6) where C24h in the blood is the concentration of analyte found in the blood sample at 24 h, and C0–24h in the urine and C0–24h in the fecal lysate are the concentrations of the analyte found in the urine and fecal samples, respectively, between 0 and 24 h.

in vitro = in vitro ADME, rat; settings: Sprague-Dawley, pH 6, rat fecal lysates, 24 h; for recovery at 24 h, 100 µg/mL: as principle in MSKE 100 µg/mL, relative to HBSS, read-out: relative recovery after incubation with the fecal lysates
Method: (§1) The rat fecal lysate was prepared according to the method of Niu et al. with slight modifications. Briefly, 3 g of feces was collected from SD rats (8–10 weeks, n = 6) were then washed with ice-cold 0.1 mM potassium phosphate buffer (KPi, 10 mL). After resuspension in ice-cold 0.1 mM KPi (20 mL), the feces were vortexed and sonicated in an ice water bath for 45 min. To obtain the fecal lysate, the mixture was centrifuged at 15,000 rpm at 4 °C for 30 min. The supernatant was collected and maintained at –80 °C until use. The protein concentration in the fecal lysate was determined using a BCA™ protein assay kit.
(§2) The prepared fecal lysate was thawed and diluted with ice-cold HBSS at pH 6 to obtain a final concentration of 0.5 mg/mL protein for each test. […] The mixtures were then incubated in water bath at 37 °C for 24 h. After samples (200 μL) were collected at each specific time point (0, 1, 2, 8, and 24 h), the reaction was stopped by adding ice-cold methanol (50 μL). The samples were then vortexed and centrifuged at 15,500 rpm for 15 min, and the supernatant was injected into the UPLC for analysis.
(§3) The chemical and biological stabilities of the phenolic compounds were expressed as the concentration of the analyte at different time points relative to the concentration of the same analyte at time zero multiplied by 100 (% recovery).

rat fecal lysates = test: in vitro; type: in vitro ADME; settings: for recovery after incubation with inactive fecal lysates and HBSS at pH 6 / recovery after incubation with fecal lysates: as principle in MSKE 100 µg/mL; for recovery after incubation with fecal lysates / stability in inactive rat fecal lysates or HBSS at pH 6: 24 h
Method: as §1, §2, §3

Caco-2 cell lysates = test: Biological stability in Caco-2 cell lysates; type: in vitro ADME, human; settings: for stability in HBSS at pH 6 (blank control) / stability in Caco-2 cell lysates / stability in inactive Caco-2 cell lysates: individual compound 100 µM; for stability in HBSS at pH 6 (blank control): HBSS pH 6, up to 24 h; for stability in Caco-2 cell lysates: active cell lysates, within 24 h; for stability in inactive Caco-2 cell lysates: inactive (heated) cell lysates
Method: Caco-2 cells were cultured in T75 flasks at a seeding density of 2 × 10^6 cells/flask for 12–15 days. The cell lysate was freshly prepared by washing the cells twice with ice-cold HBSS at pH 6 (12 mL). The cells were then collected by scraping and resuspending in ice-cold HBSS at pH 6 (7.5 mL/flask). The cell suspension was vortexed and sonicated in an ice water bath for 30 min to obtain the lysate, which was kept on ice until use, and its cellular protein concentration was determined using a BCA™ protein assay kit (Thermo Fisher Scientific, Rockford, IL, USA) with bovine serum albumin as a reference standard.
Many phenolic compounds were subject to sulfation and glucuronidation by Caco-2 cells at concentrations higher than 20 μM [16, 21, 43] and the metabolites of GA, MG and PGG could not be observed in Caco-2 transport experiment. Therefore, the concentration of the standard pure compounds used in this study was higher than that used in the chemical stability experiment. After preparing the cell lysate, the test compounds were prepared by dissolution in HBSS at pH 6 and then added to the lysates for a final concentration of 1.08 mg/mL protein to obtain final individual concentrations of 100 μM for GA, MG and PGG and 0.75 mg/mL for MSKE, which is equivalent to concentrations of 55.12 ± 4.57 µM GA, 7.56 ± 0.85 µM MG and 110.02 ± 17.52 µM PGG. The mixtures were then incubated in a water bath at 37 °C for 24 h, and samples (50 µL for standard compounds, and 200 µL for MSKE) were collected at 0, 4, 6 and 24 h. Each sample was then added to an ice-cold 50% methanol (150 µL for GA, MG and PGG, and 600 µL for MSKE) to stop the reaction, vortexed and centrifuged at 15,500 rpm for 15 min, and the supernatant was injected into the UPLC for analysis.
as §3

[2] = MSKE 143 mg/kg (20 mg/kg PGG and 0.13 mg/kg MG)
[3] = mixture of MG and PGG 20 mg/kg each

Row | Compound | Total Mass in Feces (0−24 h) [1, 2] | Total Mass in Urine (0−24 h) [1, 2] | Total Mass in Feces (0−24 h) [1, 3] [µg] | Total Mass in Urine (0−24 h) [1, 3] [µg] | recovery at 24 h, 100 µg/mL (in vitro) [%] | maximum GA concentration increase after hydrolysis of PGG (rat fecal lysates; PGG 10 µM incubated with rat fecal lysates) | recovery after incubation with inactive fecal lysates and HBSS at pH 6 (rat fecal lysates) | recovery after incubation with fecal lysates (rat fecal lysates; rat fecal lysates) | stability in inactive rat fecal lysates or HBSS at pH 6 (rat fecal lysates; individual compound 10 µM) | stability in HBSS at pH 6 (blank control) (Caco-2 cell lysates) | stability in Caco-2 cell lysates (Caco-2 cell lysates) | stability in inactive Caco-2 cell lysates (Caco-2 cell lysates; 24 h) | dose excreted [1, 2] [%] | dose excreted [1, 3] [%] | recovery at 24 h, 100 µg/mL (in vitro; rat fecal lysate) [%] | recovery at 24 h, 10 µM (in vitro; rat fecal lysate, mixture of GA, MG and PGG 10 µM each, read-out: recovery after incubation with the fecal lysates) [%] | time to complete degradation in fecal lysates (rat fecal lysates; individual compound 10 µM, rat fecal lysates) [h] | stability in inactive fecal lysates (rat fecal lysates; mixture of GA, MG and PGG 10 µM each, PGG after 8 h) | relative recoveries after incubation with Caco-2 cell lysates (Caco-2 cell lysates; as principle in MSKE 0.75 mg/mL, 24 h, relative to HBSS)
1 | O=C(O)c1cc(O)c(O)c(O)c1 [GA, Gallic acid] | 39.47 ± 17.44 ^b µg | 54.54 ± 26.59 µg | 9.64 ± 1.91 | 42.95 ± 26.88 | 167 | approximately 4 fold | increased recoveries | increased recoveries | not significantly different from the initial concentrations | stable | degraded | stable |  |  |  |  |  |  | 
2 | COC(=O)c1cc(O)c(O)c(O)c1 [MG, methyl gallate] | 18.35 ± 10.14 ^b µg | 9.81 ± 2.81 ^b µg | 3.25 ± 1.73 | 100.36 ± 74.67 |  |  | increased recoveries | increased recoveries | stable | stable | degraded | stable | 73.4 ± 30 | < 2 | 54.7 | 55.4 | ≤ 8 | good stabilities | decreased relative recoveries
